Test results: publication PMC4153677, “Probing the Activity Modification Space of the Cysteine Peptidase Cathepsin K with Novel Allosteric Modifiers” (PLoS ONE, 2014)

Molecular target: T1, Recombinant human cathepsin K (Homo sapiens, UniProt P43235)
T1 construct: made in house
T1 sequence (P43235 115-329): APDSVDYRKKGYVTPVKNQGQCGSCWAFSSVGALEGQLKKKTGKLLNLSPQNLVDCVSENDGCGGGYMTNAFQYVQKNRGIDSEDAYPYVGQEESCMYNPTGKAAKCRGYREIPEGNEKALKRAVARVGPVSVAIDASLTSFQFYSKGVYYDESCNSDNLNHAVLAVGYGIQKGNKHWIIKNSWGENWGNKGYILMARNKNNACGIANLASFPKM
Assay: Kinetic measurements, hydrolysis of the fluorogenic substrate Z-FR↓AMC (general modifier mechanism)
Type: biochemical
Design: key to α (coefficient, effect of modifier on the affinity for the substrate) / β (coefficient, effect of modifier on the catalytic rate): dimensionless coefficients multiplying KS (α) and kcat (β)
Procedure: All modifiers were tested for their effect on the hydrolysis of the low molecular mass synthetic substrate Z-FR↓AMC. Since all progress curves were linear from the beginning of the reaction, initial velocities were calculated from the slopes by linear regression. […] The basic mechanism considered for the analysis of the interactions was the general modifier mechanism shown in Figure 2, in which the effect of modifier is determined by the values of the coefficients α and β that multiply the kinetic parameters K S, K A (α) and k cat (β). In the thermodynamic box embodied in Figure 2, the reciprocal of the coefficient α represents the allosteric coupling constant that characterizes energy linkage between the modifier and the substrate, while a […] represents the effect exerted by the modifier on catalysis. The specific velocity plot was used for the primary screening of the kinetic behavior of the modifiers (Equation 2), as it allows an immediate judgment of the type of interaction and to gather preliminary estimates of the coefficients α and β, as well as of the dissociation constant of the modifier. Refinement was then performed by fitting the rate Equation 1 to data.
Figure 3 Kinetic mechanisms of the identified modifiers. All compounds were characterized by a combination of specific velocity plots (upper panels) and titration curves recorded at fixed substrate concentrations (lower panels). All experiments were performed at 25±1°C in 100 mM sodium acetate buffer pH 5.50 containing 1 mM EDTA and 2.5 mM DTT using the fluorogenic substrate Z-FR↓AMC and at a final enzyme concentration of 0.5 nM.
All kinetic measurements were performed in 100 mM sodium acetate buffer pH 5.50 containing 1 mM EDTA and 2.5 mM dithiothreitol (DTT) in single-use acrylic cuvettes (1×1 cm) thermostatted at 25±1°C with magnetic stirring. The hydrolysis of Z-FR↓AMC was followed fluorometrically at λex 383 nm and λem 455 nm. All tested modifiers were analyzed spectroscopically to determine their absorption properties under the conditions used in the assays. When necessary, appropriate corrections were made to the calculated reaction rates to take into account the inner filter effect.
The effects of the modifiers on enzymatic activity were analyzed with the general modifier mechanism which describes the interaction between enzyme (E), substrate (S) and modifier (A), as shown in Figure 2. Assuming that binding of A to E and ES is at quasi-equilibrium and that steady-state conditions are established in the fluxes around ES and ESA (i.e. the catalytic steps), the reaction rate for the mechanism in Figure 2 is defined by Equation 1: [drawing 2] (1) where v 0 is the reaction rate in the absence of modifier, K A is the equilibrium dissociation constant of the EA complex, α and β are dimensionless coefficients and σ = [S]/K m, approximated to [S]/K s. To determine the mechanism of interaction, plot the kinetic data and calculate preliminary values of the interaction parameters, the specific velocity plot was used. For this purpose, Equation 1 is rewritten as:
The plot of v 0/v A versus σ/(1+σ) produces straight lines with intersection points at v 0/v A = 1, regardless of the interaction mechanism. The parameters α, β and K A are determined by replotting the extrapolated values of the straight lines at σ/(1+σ) = 0 (a) and σ/(1+σ) = 1 (b) versus 1/[A] in the form: [drawing 4] (3) [drawing 5] (4)

Z-FRAMC: geometric mean of residual activities (vA) (at 0.1×Km and 10×Km substrate, modifier 10×KA, calculated with Equation 1 from α and β of Table 3, unmodified enzyme = 1.00): 0.42
β (coefficient, effect of modifier on the catalytic rate) (substrate Z-FR↓AMC, pH 5.50, 25°C, 0.5 nM enzyme): 0.74±0.13
Kd (substrate Z-FR↓AMC, pH 5.50, 25°C, 0.5 nM enzyme, read-out: K A (equilibrium dissociation constant of the EA complex)): 150 ± 50 µM
Structure (SMILES): OC(c1cc(-c2ccc(C(F)(F)F)cc2)nc(C(F)(F)F)c1)C1CCCCN1 (stereo not drawn) [Compound 2, Piperidin-2-yl-[2-(trifluoromethyl)-6-[4-(trifluoromethyl)phenyl]pyridin-4-yl] methanol]
